Assay results taken from PubChem BioAssay (NCI).
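Results reflect a 48-hour exposure of cells in 96-well plates to compound at five concentrations. GI50: concentration for 50% inhibition of growth. TGI: concentration producing complete growth inhibition.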

Tests used:
Experiment in all cases: NCI tumour cell line growth inhibition, 48 h
786-0 renal = tested on: 786-0 renal
LOX IMVI melanoma = tested on: LOX IMVI melanoma
MCF7 breast = tested on: MCF7 breast
MDA-MB-231 breast = tested on: MDA-MB-231 breast
PC-3 prostate = tested on: PC-3 prostate
RXF 393 renal = tested on: RXF 393 renal
SNB-19 CNS = tested on: SNB-19 CNS
SR leukemia = tested on: SR leukemia
T-47D breast = tested on: T-47D breast
TK-10 renal = tested on: TK-10 renal

With `O=C(CC(=O)c1ccccc1NC1=Cc2ccccc2C(=O)C1=O)C(=O)NC1=C(Cl)C(=O)c2ccccc2C1=O` the TGI (786-0 renal) was 10.7 µM, the TGI (LOX IMVI melanoma) was 3.35 µM and the TGI (MCF7 breast) was 7.32 µM. The TGI (MDA-MB-231 breast) was 8.95 µM, the TGI (PC-3 prostate) was 6.69 µM and the TGI (RXF 393 renal) was 7.5 µM. It also gave a TGI (SNB-19 CNS) of 16.7 µM, a TGI (SR leukemia) of 14.1 µM and a TGI (T-47D breast) of 30.6 µM. It also gave a TGI (TK-10 renal) of 43.6 µM.

`O=C1C=C(Nc2nc(C(=O)O)cc(=O)[nH]2)c2ccccc2C1=O` was tested, and the TGI (786-0 renal) was over 100 µM, the TGI (LOX IMVI melanoma) was over 100 µM and the TGI (MCF7 breast) was over 100 µM. It also gave a TGI (MDA-MB-231 breast) of over 100 µM, a TGI (PC-3 prostate) of over 100 µM and a TGI (RXF 393 renal) of over 100 µM. The TGI (SNB-19 CNS) was over 100 µM, the TGI (SR leukemia) was over 100 µM and the TGI (T-47D breast) was over 100 µM. It also gave a TGI (TK-10 renal) of over 100 µM.

`CC1(C)CC[C@]2(C(=O)O)CC[C@]3(C)[C@H](CC[C@@H]4[C@@]5(C)CCC(=O)C(C)(C)[C@@H]5CC[C@]43C)[C@H]2[C@H]1OC(=O)C(F)(F)F` showed a GI50 (786-0 renal) of 14.3 µM, a TGI (786-0 renal) of 29.5 µM and a GI50 (LOX IMVI melanoma) of 5.91 µM. For the same compound, the TGI (LOX IMVI melanoma) was 18.9 µM, the GI50 (MCF7 breast) was 5.02 µM and the TGI (MCF7 breast) was 25.4 µM. The GI50 (MDA-MB-231 breast) was 13.5 µM, the TGI (MDA-MB-231 breast) was 31.4 µM and the GI50 (PC-3 prostate) was 3.98 µM. It also gave a TGI (PC-3 prostate) of 17.9 µM, a GI50 (RXF 393 renal) of 11.1 µM and a TGI (RXF 393 renal) of 23.8 µM. The GI50 (SNB-19 CNS) was 13.8 µM, the TGI (SNB-19 CNS) was 27.9 µM and the GI50 (SR leukemia) was 3.75 µM. The TGI (SR leukemia) was 33.8 µM, the GI50 (T-47D breast) was 3.84 µM and the TGI (T-47D breast) was 23.9 µM. It also gave a GI50 (TK-10 renal) of 16.9 µM and a TGI (TK-10 renal) of 31.8 µM.

Compound `CCOC(=O)c1cnc2c(cnn2CC)c1NN=C(C)C` has a GI50 (786-0 renal) of 29.6 µM, a TGI (786-0 renal) of over 100 µM and a GI50 (LOX IMVI melanoma) of 35.3 µM. For the same compound, the TGI (LOX IMVI melanoma) was over 100 µM, the GI50 (MCF7 breast) was 90.4 µM and the TGI (MCF7 breast) was over 100 µM. For the same compound, the GI50 (MDA-MB-231 breast) was 45.1 µM, the TGI (MDA-MB-231 breast) was over 100 µM and the GI50 (PC-3 prostate) was 37.5 µM. The TGI (PC-3 prostate) was over 100 µM, the GI50 (RXF 393 renal) was 11.4 µM and the TGI (RXF 393 renal) was 70 µM. For the same compound, the GI50 (SNB-19 CNS) was 32.6 µM, the TGI (SNB-19 CNS) was over 100 µM and the GI50 (SR leukemia) was 33.6 µM. For the same compound, the TGI (SR leukemia) was over 100 µM, the GI50 (T-47D breast) was 29 µM and the TGI (T-47D breast) was over 100 µM. For the same compound, the GI50 (TK-10 renal) was 27.1 µM and the TGI (TK-10 renal) was over 100 µM.

`Nc1nc(Nc2ccc3c(c2)CCC(N2CCCC2)CC3)nn1-c1cc2c(nn1)-c1ccccc1CCC2` (stereo not given) was tested, and the GI50 (786-0 renal) was 1.1 µM, the TGI (786-0 renal) was 2.49 µM and the GI50 (LOX IMVI melanoma) was 1.34 µM. For the same compound, the TGI (LOX IMVI melanoma) was 2.69 µM, the GI50 (MCF7 breast) was 1.35 µM and the TGI (MCF7 breast) was 2.79 µM. The GI50 (MDA-MB-231 breast) was 1.46 µM, the TGI (MDA-MB-231 breast) was 3.04 µM and the GI50 (PC-3 prostate) was 0.629 µM. For the same compound, the TGI (PC-3 prostate) was 2.14 µM, the GI50 (RXF 393 renal) was 0.631 µM and the TGI (RXF 393 renal) was 1.87 µM. The GI50 (SNB-19 CNS) was 1.6 µM, the TGI (SNB-19 CNS) was 3.4 µM and the GI50 (SR leukemia) was 0.42 µM. It also gave a TGI (SR leukemia) of 2.37 µM, a GI50 (T-47D breast) of 1.75 µM and a TGI (T-47D breast) of 3.95 µM. It also gave a GI50 (TK-10 renal) of 1.14 µM and a TGI (TK-10 renal) of 2.61 µM.

With `CC12CCC(O)CC1CCC1C2CCC2(C)C(C3=CC(=O)OC3)CCC12` (stereo not given) the GI50 (786-0 renal) was 22 µM, the TGI (786-0 renal) was 65.2 µM and the GI50 (LOX IMVI melanoma) was 0.3 µM. The TGI (LOX IMVI melanoma) was over 100 µM, the GI50 (MCF7 breast) was over 100 µM and the TGI (MCF7 breast) was over 100 µM. For the same compound, the GI50 (MDA-MB-231 breast) was 0.636 µM, the TGI (MDA-MB-231 breast) was 8.49 µM and the GI50 (PC-3 prostate) was over 67.4 µM. The TGI (PC-3 prostate) was over 100 µM, the GI50 (RXF 393 renal) was 7.76 µM and the TGI (RXF 393 renal) was 42.5 µM. The GI50 (SNB-19 CNS) was 14.2 µM, the TGI (SNB-19 CNS) was over 100 µM and the GI50 (SR leukemia) was 0.375 µM. For the same compound, the TGI (SR leukemia) was over 100 µM, the GI50 (T-47D breast) was 22.3 µM and the TGI (T-47D breast) was over 100 µM. For the same compound, the GI50 (TK-10 renal) was 19.6 µM and the TGI (TK-10 renal) was 66.4 µM.

With `COc1cc(/C=C/C(=O)c2cc(OC)c(OC)c(OC)c2)cc(OC)c1OC` the GI50 (786-0 renal) was 3.07 µM, the TGI (786-0 renal) was 11.3 µM and the GI50 (LOX IMVI melanoma) was 2.74 µM. It also gave a TGI (LOX IMVI melanoma) of 10.9 µM, a GI50 (MCF7 breast) of 3.05 µM and a TGI (MCF7 breast) of 15.3 µM. It also gave a GI50 (MDA-MB-231 breast) of 6.89 µM, a TGI (MDA-MB-231 breast) of over 100 µM and a GI50 (PC-3 prostate) of 5.32 µM. It also gave a TGI (PC-3 prostate) of 27.8 µM, a GI50 (RXF 393 renal) of 2.81 µM and a TGI (RXF 393 renal) of 11.4 µM. The GI50 (SNB-19 CNS) was 11 µM, the TGI (SNB-19 CNS) was 27.3 µM and the GI50 (SR leukemia) was 1.46 µM. For the same compound, the TGI (SR leukemia) was 8.41 µM, the GI50 (T-47D breast) was 3.5 µM and the TGI (T-47D breast) was 31.5 µM. For the same compound, the GI50 (TK-10 renal) was 4.42 µM and the TGI (TK-10 renal) was 59.2 µM.

`Oc1ccc(SCc2ccc(NCc3ccccc3)cc2)cc1` gave a TGI (786-0 renal) of 26.8 µM, a TGI (LOX IMVI melanoma) of 73.9 µM and a TGI (MCF7 breast) of over 100 µM. It also gave a TGI (MDA-MB-231 breast) of over 100 µM, a TGI (PC-3 prostate) of 71.9 µM and a TGI (RXF 393 renal) of 78.8 µM. The TGI (SNB-19 CNS) was 64.8 µM, the TGI (SR leukemia) was 47.6 µM and the TGI (T-47D breast) was 56.6 µM. For the same compound, the TGI (TK-10 renal) was over 100 µM.

`COc1ccc(-c2nn(-c3cccc(NC(=O)Nc4cccc(C(F)(F)F)c4)c3)cc2-c2ccncc2)cc1Cl` gave a GI50 (786-0 renal) of 2.28 µM, a TGI (786-0 renal) of 10.1 µM and a GI50 (LOX IMVI melanoma) of 3.02 µM. For the same compound, the TGI (LOX IMVI melanoma) was over 100 µM, the GI50 (MCF7 breast) was 1.91 µM and the TGI (MCF7 breast) was over 100 µM. The GI50 (MDA-MB-231 breast) was 2.18 µM, the TGI (MDA-MB-231 breast) was 19.8 µM and the GI50 (PC-3 prostate) was 0.986 µM. The TGI (PC-3 prostate) was 8.54 µM, the GI50 (RXF 393 renal) was 1.33 µM and the TGI (RXF 393 renal) was 6.37 µM. It also gave a GI50 (SNB-19 CNS) of 3.85 µM, a TGI (SNB-19 CNS) of over 100 µM and a GI50 (SR leukemia) of 1.31 µM. For the same compound, the TGI (SR leukemia) was 4.84 µM, the GI50 (T-47D breast) was 1.17 µM and the TGI (T-47D breast) was 7.69 µM. The GI50 (TK-10 renal) was 4.1 µM and the TGI (TK-10 renal) was over 100 µM.
